This note sets out measurements from patent US10329270B2, “Heteroaryl compounds as BTK inhibitors and uses thereof” (Merck Patent GmbH, priority 2013, dated 2019).

In one assay the target is T1, full-length human BTK (Homo sapiens, UniProt Q06187).
T1 construct: 2.5× stocks of full-length human BTK (08-080); purchased CarnaBio USA, Inc., Natick, Mass; 08-080
In words: Assay A: BTK IC50 Enzyme Assay (microfluidic off-chip mobility shift kinase assay). The following applies: full-length human BTK, kinKDR peptide substrate, incubated 90 min at 27 C; read-out: Assay A (Time Dependent BTK Enzyme Assay IC50). In kind it is biochemical. The method, boiled down: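 Off-chip microfluidic mobility shift assay with full-length human BTK; phosphorylated and unphosphorylated peptide substrate were separated by charge/mass on a LabChip 3000.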

In a further assay the test system is PBMC. Briefly: Assay B: Time Dependent PMBC IC50 Assay. In kind it is cell-based. As to the method:
Assay B: Time Dependent PMBC IC50 Assay
Compounds described by embodiments of the present invention were assayed using a time dependent PMBC assay. The data from the same is recorded in Table 2 within the column labeled: “Time Dependent PBMC Assay IC50.” These IC50 values are reported in ranges wherein: I<1 uM and II>1 uM.

The next assay concerns the target T2, BTK in human whole blood (Homo sapiens, UniProt Q06187).
T2 construct: endogenous in cells; host or cells: human whole blood
In words: Assay C: Time Dependent Human Whole Blood IC50 Assay. In kind it is cell-based. The following applies: read-out: Assay C (Time Dependent Human Whole Blood BTK Enzyme Assay IC50). Here is the method:
Assay C: Time Dependent Human Whole Blood IC50 Assay
Compounds described by embodiments of the present invention were assayed using a human whole blood assay. The data from the same is recorded in Table 2 within the column labeled: “Time Dependent Human Whole Blood BTK Enzyme Assay IC50”.

T1 sequence (Q06187 whole entry): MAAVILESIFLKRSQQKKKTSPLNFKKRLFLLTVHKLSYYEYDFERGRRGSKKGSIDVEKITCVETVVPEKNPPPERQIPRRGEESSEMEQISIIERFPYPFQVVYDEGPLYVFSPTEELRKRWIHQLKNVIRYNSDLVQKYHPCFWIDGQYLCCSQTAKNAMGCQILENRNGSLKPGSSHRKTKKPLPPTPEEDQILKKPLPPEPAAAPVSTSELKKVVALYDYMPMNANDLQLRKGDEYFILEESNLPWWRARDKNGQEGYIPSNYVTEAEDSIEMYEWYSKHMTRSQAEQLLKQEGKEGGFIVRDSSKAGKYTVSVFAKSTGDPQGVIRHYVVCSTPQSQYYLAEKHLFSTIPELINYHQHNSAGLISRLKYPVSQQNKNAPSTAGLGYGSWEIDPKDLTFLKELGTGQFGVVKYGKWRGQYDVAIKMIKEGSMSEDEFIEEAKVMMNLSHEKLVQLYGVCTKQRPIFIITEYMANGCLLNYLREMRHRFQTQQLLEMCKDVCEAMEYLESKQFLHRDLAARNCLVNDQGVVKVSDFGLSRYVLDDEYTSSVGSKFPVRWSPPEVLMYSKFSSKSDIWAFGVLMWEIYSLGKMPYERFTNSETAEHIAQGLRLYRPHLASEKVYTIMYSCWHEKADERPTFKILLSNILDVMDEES
T2 sequence (Q06187 whole entry): as above

Take `C=CC(=O)N[C@@H]1CN(c2ccc(C(N)=O)c(Nc3ccc(CCN4CCCC4)cc3)n2)CC12CC2` [Compound 7, 6-((S)-7-Acryloylamino-5-aza-spiro[2.4]hept-5-yl)-2-[4-(2-pyrrolidin-1-yl-ethyl)-phenylamino]-nicotinamide]: the IC50 on full-length human BTK and in the assay with PBMC was under 100 nM each time.
In the case of `C=CC(=O)N1CCC(c2ccc(C(N)=O)c(Nc3ccc(OC4CCN(C)CC4)cc3)n2)CC1` [Compound 10, 1′-Acryloyl-6-[4-(1-methyl-piperidin-4-yloxy)-phenylamino]-1′,2′,3′,4′,5′,6′-hexahydro-[2,4′]bipyridinyl-5-carboxylic acid amide], the IC50 at full-length human BTK and in the assay with PBMC was under 100 nM throughout.
For `C=CC(=O)N1CCN(c2ccc(C(N)=O)c(Nc3ccc(CCN4CCCC4)cc3)n2)CC1` [Compound 12, 6-(4-Acryloyl-piperazin-1-yl)-2-[4-(2-pyrrolidin-1-yl-ethyl)-phenylamino]-nicotinamide], the IC50 at full-length human BTK and with PBMC was under 100 nM in each case.
For the compound `C=CC(=O)N[C@H]1CCN(c2ccc(C(N)=O)c(Nc3ccc(C4CCN(C)CC4)cc3)n2)C1` [Compound 14, 6-((S)-3-Acryloylamino-pyrrolidin-1-yl)-2-[4-(1-methyl-piperidin-4-yl)-phenylamino]-nicotinamide], the 50% inhibitory concentration (IC50) at full-length human BTK and in the assay with PBMC was under 100 nM in each case.
Turning to `C=CC(=O)N[C@H]1CCN(c2ccc(C(N)=O)c(Nc3ccc(CCN4CCCC4)cc3)n2)C1` [Compound 16, 6-((S)-3-Acryloylamino-pyrrolidin-1-yl)-2-[4-(2-pyrrolidin-1-yl-ethyl)-phenylamino]-nicotinamide], the IC50 on full-length human BTK and in the assay with PBMC was under 100 nM each time.
On to `C=CC(=O)N1CC=C(c2ccc(C(N)=O)c(Nc3ccc(CCN4CCCC4)cc3)n2)CC1` [Compound 17, 1′-Acryloyl-6-[4-(2-pyrrolidin-1-yl-ethyl)-phenylamino]-1′,2′,3′,6′-tetrahydro-[2,4′]bipyridinyl-5-carboxylic acid amide], for which the IC50 at full-length human BTK and in the assay on PBMC was under 100 nM throughout.
Take `C=CC(=O)N1CCC(c2ccc(C(N)=O)c(Nc3ccc(CCN4CCCC4)cc3)n2)CC1` [Compound 18, 1′-Acryloyl-6-[4-(2-pyrrolidin-1-yl-ethyl)-phenylamino]-1′,2′,3′,4′,5′,6′-hexahydro-[2,4′]bipyridinyl-5-carboxylic acid amide]: the IC50 at full-length human BTK and in the assay with PBMC was under 100 nM each time.
With `C=CC(=O)N1CCC2(CCN(c3ccc(C(N)=O)c(Nc4ccc(CCN5CCCC5)cc4)n3)C2)C1` (centres unmarked) [Compound 20, 6-(7-Acryloyl-2,7-diaza-spiro[4.4]non-2-yl)-2-[4-(2-pyrrolidin-1-yl-ethyl)-phenylamino]-nicotinamide], the IC50 at full-length human BTK and in the assay with PBMC was under 100 nM each time.
For `C=CC(=O)N1CCC(c2ccc(C(N)=O)c(Nc3ccc(C(=O)N4CCCCC4)cc3)n2)CC1` [Compound 22, 1′-Acryloyl-6-[4-(piperidine-1-carbonyl)-phenylamino]-1′,2′,3′,4′,5′,6′-hexahydro-[2,4′]bipyridinyl-5-carboxylic acid amide], the half-inhibitory concentration (IC50) on full-length human BTK and in the assay on PBMC was under 100 nM in each case.
Regarding `C=CC(=O)N(C)[C@H]1CCN(c2ccc(C(N)=O)c(Nc3ccc(CCN4CCCC4)cc3)n2)C1` [Compound 30, 6-[(S)-3-(Acryloyl-methyl-amino)-pyrrolidin-1-yl]-2-[4-(2-pyrrolidin-1-yl-ethyl)-phenylamino]-nicotinamide], the IC50 at full-length human BTK and with PBMC was under 100 nM throughout.
On to `C=CC(=O)N[C@H]1CCN(c2ccc(C(N)=O)c(Nc3ccc(N4CCCCC4)cc3)n2)C1` [Compound 31, 6-((S)-3-Acryloylamino-pyrrolidin-1-yl)-2-(4-piperidin-1-yl-phenylamino)-nicotinamide], for which the IC50 (in general, the midpoint of a concentration-inhibition curve) on full-length human BTK was under 100 nM; in the assay with PBMC, 100 to 1000 nM.
As for `C=CC(=O)N[C@H]1CCN(c2ccc(C(N)=O)c(Nc3ccc(N4CCOCC4)nc3)n2)C1` [Compound 38, 6-((S)-3-Acryloylamino-pyrrolidin-1-yl)-2-(6-morpholin-4-yl-pyridin-3-ylamino)-nicotinamide], the IC50 on full-length human BTK was under 100 nM; with PBMC, 100 to 1000 nM.
In the case of `C=CC(=O)N[C@H]1CCN(c2ccc(C(N)=O)c(Nc3ccc(C(=O)N4CC(C)OC(C)C4)cc3)n2)C1` (stereo partly drawn) [Compound 40, 6-((S)-3-Acryloylamino-pyrrolidin-1-yl)-2-[4-(2,6-dimethyl-morpholine-4-carbonyl)-phenylamino]-nicotinamide], the results for the IC50 at full-length human BTK and with PBMC were under 100 nM and 100 to 1000 nM, respectively.
The matching figures for `C=CC(=O)N1CCC=C(c2ccc(C(N)=O)c(Nc3ccc(CCN4CCCC4)cc3)n2)C1` [Compound 44, 1′-Acryloyl-6-[4-(2-pyrrolidin-1-yl-ethyl)-phenylamino]-1′,2′,5′,6′-tetrahydro-[2,3′]bipyridinyl-5-carboxylic acid amide]: under 100 nM and 100 to 1000 nM.
For `C=CC(=O)N[C@H]1CCN(c2ccc(C(N)=O)c(Nc3ccc(OC)cc3)n2)C1` [Compound 45, 6-((S)-3-Acryloylamino-pyrrolidin-1-yl)-2-(4-methoxy-phenylamino)-nicotinamide], the IC50 was under 100 nM at full-length human BTK and 100 to 1000 nM at BTK in human whole blood.
For `C=CC(=O)N1CC[C@@H](Nc2ccc(C(N)=O)c(Oc3ccc(Oc4ccccc4)cc3)n2)C1` [Compound 72, 6-((R)-1-Acryloyl-pyrrolidin-3-ylamino)-2-(4-phenoxy-phenoxy)-nicotinamide], the IC50 in the assay on PBMC is under 100 nM.
Turning to `C=CC(=O)Nc1cncc(-c2ccc(C(N)=O)c(Oc3ccc(Oc4ccccc4)cc3)n2)c1` [Compound 75, 5′-acrylamido-6-(4-phenoxyphenoxy)-[2,3′-bipyridine]-5-carboxamide], the IC50 on full-length human BTK and in the assay on PBMC was under 100 nM each time.
As for `C=CC(=O)N[C@H]1CCN(c2cc(Nc3ccc(C(=O)N4CCOCC4)cc3)c(C(N)=O)cn2)C1` [Compound 108, 6-((S)-3-Acryloylamino-pyrrolidin-1-yl)-4-[4-(morpholine-4-carbonyl)-phenylamino]-nicotinamide], the values for the IC50 at full-length human BTK and with PBMC were under 100 nM and 100 to 1000 nM, respectively.
For `C=CC(=O)N1CCC(c2cnc(C(N)=O)c(NC(C)=O)c2)CC1` [Compound 134] the same measures were under 100 nM and 100 to 1000 nM.
For `C=CC(=O)N1CCN(c2ncc(C(N)=O)c(Oc3ccc(Oc4ccccc4)cc3)n2)CC1` [Compound 173, 2-(4-Acryloyl-piperazin-1-yl)-4-(4-phenoxy-phenoxy)-pyrimidine-5-carboxylic acid amide] the same measures were under 100 nM and under 100 nM.
The matching figures for `C=CC(=O)N1CCC(c2ccc(C(N)=O)c(Nc3ccc(C(=O)N4CCN(C(=O)CCCCNC(=O)CCOCCOCCOCCOCCNC(=O)CCCCC5SCC6NC(=O)NC65)CC4)cc3)n2)CC1` (centres unmarked) [Compound 177]: under 100 nM and over 5000 nM.
Consider `C=CC(=O)N[C@H]1CCN(c2nc(Nc3ccc(CCN4CCCC4)cc3)c(C(N)=O)cc2F)C1` [Compound 179, 6-((S)-3-Acryloylamino-pyrrolidin-1-yl)-5-fluoro-2-[4-(2-pyrrolidin-1-yl-ethyl)-phenylamino]-nicotinamide], for which the half-inhibitory concentration (IC50) at full-length human BTK and in the assay with PBMC was under 100 nM throughout.
Regarding `C=CC(=O)N[C@H]1CCN(c2nc(Nc3ccc(N4CC(C)OC(C)C4)cc3)c(C(N)=O)cc2F)C1` (stereo partly drawn) [Compound 188, 6-((S)-3-Acryloylamino-pyrrolidin-1-yl)-2-[4-(2,6-dimethyl-morpholin-4-yl)-phenylamino]-5-fluoro-nicotinamide], the IC50 at full-length human BTK and in the assay with PBMC was under 100 nM each time.
Consider `C=CC(=O)N1CCC(c2ccc(C(N)=O)c(Nc3ccc(C(=O)N4CCCC(NC(=O)CCOCCOCCOCCOCCNC(=O)CCCC[C@@H]5SCC6NC(=O)NC65)C4)cc3)n2)CC1` (stereo partly drawn) [Compound 191, 6-(1-acryloylpiperidin-4-yl)-2-((4-(3-(17-oxo-21-((4S)-2-oxohexahydro-1H-thieno[3,4-d]imidazol-4-yl)-4,7,10,13-tetraoxa-16-azahenicosanamido)piperidine-1-carbonyl)phenyl)amino)nicotinamide], for which the IC50 is under 100 nM on full-length human BTK and over 5000 nM in the assay on PBMC.
As to `N#CN[C@@H]1CCCN(c2ccc(C(N)=O)c(Nc3ccc(C(=O)N4CCOCC4)cc3)n2)C1` [Compound 227, (R)-3-Cyanoamino-6′-[4-(morpholine-4-carbonyl)-phenylamino]-3,4,5,6-tetrahydro-2H-[1,2′]bipyridinyl-5′-carboxylic acid amide], the IC50 at full-length human BTK was 100 to 1000 nM; with PBMC, over 5000 nM.
For `N#CN1CCCC(c2cnc(Oc3ccc(Oc4ccccc4)cc3)c(C(N)=O)c2)C1` (centres unmarked) [Compound 236, 1′-Cyano-6-(4-phenoxy-phenoxy)-1′,2′,3′,4′,5′,6′-hexahydro-[3,3′]bipyridinyl-5-carboxylic acid amide] the same measures were under 100 nM and 100 to 1000 nM.
The matching figures for `N#CN1CCC[C@H](c2cnc(Oc3ccc(Oc4ccccc4)cc3)c(C(N)=O)c2)C1` [Compound 241, (R)-5-(1-cyanopiperidin-3-yl)-2-(4-phenoxyphenoxy)nicotinamide]: under 100 nM and 100 to 1000 nM.
